The test system of one assay is A-427. The assay can be described thus: Antiproliferative activity against human A427 cells expressing KRAS G12D mutant assessed as inhibition of cell growth measured after 3 days by CellTiter-Glo assay. The class given is functional, cell-based. Conditions: A-427, 72 h. (In ATP-based viability assays light output follows the ATP content of the culture.)
The target of the next assay is GTPase KRas (Homo sapiens, UniProt P01116, G12D). Put plainly: Inhibition of recombinant his-tagged KRAS G12D mutant (unknown origin) expressed in Escherichia coli BL21(DE3) assessed as inhibition of GDP-GTP exchange rate in presence of recombinant SOS1/GMPPNP incubated for 1 hr by BODIPY fluorescence assay.
Chain of GTPase KRas (P01116 whole entry G12D): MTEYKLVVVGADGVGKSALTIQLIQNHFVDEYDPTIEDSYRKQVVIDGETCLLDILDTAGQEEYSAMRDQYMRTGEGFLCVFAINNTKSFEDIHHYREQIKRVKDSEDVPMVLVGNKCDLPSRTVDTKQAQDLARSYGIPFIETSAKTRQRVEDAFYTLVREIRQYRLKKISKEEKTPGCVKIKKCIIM

Consider eight molecules from ChEMBL document CHEMBL4834492, “Targeting the KRAS G12D Mutant as Potential Therapy in Cancer” (ACS Med Chem Lett, 2021).

As to `CN(C)CC1(COc2nc3c(c(N4CC5CCC(C4)N5)n2)CCN(c2cc(O)cc4cccc(I)c24)C3)CC1`, the IC50 in the assay with A-427 stood at 580 nM.
Consider `CN1C[C@H](F)C[C@H]1COc1nc2c(c(N3CC4CCC(C3)N4)n1)CCN(c1cc(O)cc3cccc(Br)c13)C2`, for which the 50% inhibitory concentration (IC50) with A-427 was 650 nM.
Turning to `Cc1cccc2cc(O)cc(N3CCc4c(nc(OCC5(CN6CCOCC6)CC5)nc4N4CC5CCC(C4)N5)C3)c12`, the 50% inhibitory concentration (IC50) in the assay with A-427 came to 550 nM.
Turning to `Oc1cc(N2CCc3c(nc(OCC4(CN5CCOCC5)CC4)nc3N3CC4CCC(C3)N4)C2)c2c(I)cccc2c1`, the IC50 in the assay on A-427 came to 350 nM.
With `Oc1cc(N2CCc3c(nc(OCC4(CN5CCOCC5)CC4)nc3N3CC4CCC(C3)N4)C2)c2c(Br)cccc2c1`, the half-maximal inhibitory concentration (IC50) on GTPase KRas is 1.2 nM; with A-427, 590 nM.
For `Oc1cc(N2CCc3c(nc(OCC4(CN5CC[C@@H](F)C5)CC4)nc3N3CC4CCC(C3)N4)C2)c2c(Br)cccc2c1`, in the assay on A-427, the IC50 worked out at 540 nM.
Turning to `Oc1cc(N2CCc3c(nc(OCC4(CN5CC[C@@H](F)C5)CC4)nc3N3CC4CCC(C3)N4)C2)c2c(I)cccc2c1`, the IC50 in the assay on A-427 is 470 nM.
On to `CN(C)CC1(COc2nc3c(c(N4CC5CCC(C4)N5)n2)CCN(c2cc(O)cc4cccc(Br)c24)C3)CC1(F)F` (centres undefined), for which, in the assay with A-427, the IC50 worked out at 540 nM.

Usually IC50 stands for the point on the concentration scale where inhibition reaches its midpoint.
